Target: T1, PDP1 (PDH phosphatase 1; PDP1-His6) (Mus musculus, UniProt Q3UV70)
T1 construct: mature polypeptide (transit peptide removed; forward primer encodes ASTPQKFY after start Met), C-terminal His6 from pET-28a, E. coli BL21(DE3) with pGro7 chaperones, Ni-NTA purified
T1 sequence (Q3UV70 72-538): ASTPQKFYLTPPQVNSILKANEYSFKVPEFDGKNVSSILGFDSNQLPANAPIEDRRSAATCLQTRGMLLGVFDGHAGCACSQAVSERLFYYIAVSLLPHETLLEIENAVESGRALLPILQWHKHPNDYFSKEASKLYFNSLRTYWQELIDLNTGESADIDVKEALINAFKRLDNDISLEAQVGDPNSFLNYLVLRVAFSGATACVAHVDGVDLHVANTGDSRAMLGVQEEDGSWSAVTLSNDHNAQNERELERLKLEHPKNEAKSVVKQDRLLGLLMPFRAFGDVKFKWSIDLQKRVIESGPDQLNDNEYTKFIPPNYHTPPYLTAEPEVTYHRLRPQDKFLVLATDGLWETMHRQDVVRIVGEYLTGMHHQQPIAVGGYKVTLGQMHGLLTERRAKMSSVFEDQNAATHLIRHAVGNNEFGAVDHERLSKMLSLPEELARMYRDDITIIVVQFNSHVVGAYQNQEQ
Test: protein-lipid overlay on PVDF, anti-His immunoblot
Assay type: binding
Details: lipid spotted at 31.25-500 μM, 1 μl; pH 7.5, 4 °C overnight, 3% BSA

Row | Compound | protein-lipid overlay on PVDF, anti-His immunoblot
1 | CCCCC/C=C\C/C=C\CCCCCCCC(=O)OC[C@H](COP(=O)(O)OCC(O)COP(=O)(O)OC[C@@H](COC(=O)CCCCCCC/C=C\C/C=C\CCCCC)OC(=O)CCCCCCC/C=C\C/C=C\CCCCC)OC(=O)CCCCCCC/C=C\C/C=C\CCCCC (some centres unmarked) [TLCL] | only PDP1 was shown to bind with TLCL (Fig. 2B)
2 | CCCCCCCC/C=C\CCCCCCCC(=O)OC[C@H](COP(=O)(O)O)OC(=O)CCCCCCC/C=C\CCCCCCCC [phosphatidic acid] | PA is also bound to PDP1 (and to E1)

Source: article PMC10884759, “Decreased pyruvate dehydrogenase activity in Tafazzin-deficient cells is caused by dysregulation of pyruvate dehydrogenase phosphatase 1 (PDP1)” (The Journal of Biological Chemistry, 2024)
